Measured values as given in patent US20140023611A1 (priority 2010, published 2014).

What follows are compounds tested against T1, rat NaP2b (SLC34A2) (Rattus norvegicus, UniProt Q9JJ09) (assay: Inhibition of NaP2b-mediated Pi (33P) uptake in transfected HEK293 cells, rat NaP2b). Details: 33P Pi uptake, 0.1 mM phosphate, value given as pIC50 range.
T1 construct: host or cells: HEK293
T1 sequence (Q9JJ09 1-695): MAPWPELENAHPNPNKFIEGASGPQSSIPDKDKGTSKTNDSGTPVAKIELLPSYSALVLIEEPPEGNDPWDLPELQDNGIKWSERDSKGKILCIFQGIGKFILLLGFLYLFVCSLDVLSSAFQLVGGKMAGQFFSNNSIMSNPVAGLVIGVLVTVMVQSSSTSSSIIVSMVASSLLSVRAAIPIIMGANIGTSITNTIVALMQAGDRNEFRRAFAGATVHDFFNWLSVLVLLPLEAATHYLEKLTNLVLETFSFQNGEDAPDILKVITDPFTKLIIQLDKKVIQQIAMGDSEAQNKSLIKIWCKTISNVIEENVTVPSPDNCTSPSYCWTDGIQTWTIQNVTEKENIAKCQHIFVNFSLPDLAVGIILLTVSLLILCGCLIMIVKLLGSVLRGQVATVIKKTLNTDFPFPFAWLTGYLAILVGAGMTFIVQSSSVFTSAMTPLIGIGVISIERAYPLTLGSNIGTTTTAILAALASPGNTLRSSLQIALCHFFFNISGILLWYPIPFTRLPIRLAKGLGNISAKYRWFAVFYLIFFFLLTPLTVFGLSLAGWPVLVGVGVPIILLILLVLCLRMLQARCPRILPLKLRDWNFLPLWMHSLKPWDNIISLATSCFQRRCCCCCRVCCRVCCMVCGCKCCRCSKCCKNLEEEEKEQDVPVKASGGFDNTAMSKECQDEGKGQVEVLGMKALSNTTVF
Format: cell-based
Method in brief: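 HEK293 cells were transiently transfected with NaP2b cDNA using Lipofectamine and grown near confluence. Compounds were tested at twelve concentrations from 0.1 nM to 30 uM in duplicate, and 33P-phosphate uptake was counted by scintillation after lysis. Results are expressed as pIC50.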

Row | Compound | IC50
1 | CC(Nc1cc(-c2cc(N3CCCCC3)ccc2NC(=O)c2cccc(CSCCC(=O)O)c2)ncn1)c1cccc(C(F)(F)F)c1 (stereo not shown) [Example 76, 3-((3-((4-(Piperidin-1-yl)-2-(6-((1-(3-(trifluoromethyl)phenyl)ethyl)amino)pyrimidin-4-yl)phenyl)carbamoyl)benzyl)thio)propanoic acid] | 10 to 31.6 µM
2 | CC(NC(=O)c1ccnc(-c2cc(N3CCCCC3)ccc2NC(=O)c2cccc(CSCCC(=O)O)c2)c1)c1cccc(C(F)(F)F)c1 (stereo not shown) [Example 77, 3-(3-(4-(piperidin-1-yl)-2-(4-(1-(3-(trifluoromethyl)phenyl)ethylcarbamoyl)pyridin-2-yl)phenylcarbamoyl)benzylthio)propanoic acid] | 1 to 7.94 µM
3 | O=C(O)CCSCc1cccc(C(=O)Nc2ccc(N3CCCCC3)cc2-c2cc(C(=O)NCc3ccc(N4CCOCC4)cc3)ccn2)c1 [Example 78, 3-(3-(2-(4-(4-Morpholinobenzylcarbamoyl)pyridin-2-yl)-4-(piperidin-1-yl)-phenylcarbamoyl)benzylthio) propanoic acid] | 10 to 31.6 µM
4 | O=C(O)CCSCc1cccc(C(=O)Nc2ccc(N3CCCCC3)cc2-c2cc(C(=O)NCc3ccc(-n4cccn4)cc3)ccn2)c1 [Example 79, 3-(3-((2-(4-((4-(1H-Pyrazol-1-yl)benzyl)carbamoyl)pyridin-2-yl)-4-(piperidin-1-yl)phenyl)carbamoyl)benzylthio)propanoic acid] | 10 to 31.6 µM
5 | CC(=O)N1CCN(CCN(C)C(=O)c2cccc(C(=O)Nc3ccc(N4CCCCC4)cc3-c3cc(C(=O)NCc4cccc(C(F)(F)F)c4)ccn3)c2)CC1 [Example 81, N1-(2-(4-Acetylpiperazin-1-yl)ethyl)-N1-methyl-N3-(4-(piperidin-1-yl)-2-(4-(3-(trifluoromethyl)benzylcarbamoyl)pyridin-2-yl)phenyl)isophthalamide] | 1 to 7.94 µM
6 | CN1CCN(CCN(C)C(=O)c2cccc(C(=O)Nc3ccc(N4CCCCC4)cc3-c3cc(C(=O)NCc4cccc(C(F)(F)F)c4)ccn3)c2)CC1 [Example 82, N1-Methyl-N1-(2-(4-methylpiperazin-1-yl)ethyl)-N3-(4-(piperidin-1-yl)-2-(4-((3-(trifluoromethyl)benzyl)carbamoyl)pyridin-2-yl)phenyl)isophthalamide] | 1 to 7.94 µM
7 | CN(CCN1CCN(S(C)(=O)=O)CC1)C(=O)c1cccc(C(=O)Nc2ccc(N3CCCCC3)cc2-c2cc(C(=O)NCc3cccc(C(F)(F)F)c3)ccn2)c1 [Example 83, N1-methyl-N1-(2-(4-(methylsulfonyl)piperazin-1-yl)ethyl)-N3-(4-(piperidin-1-yl)-2-(4-(3-(trifluoromethyl)benzylcarbamoyl)pyridin-2-yl)phenyl)isophthalamide] | 1 to 7.94 µM
8 | O=C(O)CCSCc1cccc(C(=O)Nc2ccc(N3CCCCC3)cc2-c2cc(C(=O)Nc3cccc(C(F)(F)F)c3)ccn2)c1 [Example 84] | 1 to 7.94 µM
9 | Cc1cc(C(=O)NCc2cccc(C(F)(F)F)c2)cc(-c2cc(N3CCCCC3)ccc2NC(=O)c2cccc(CSCCC(=O)O)c2)n1 [Example 85] | 1 to 7.94 µM
10 | O=C(O)CCSCc1cccc(C(=O)Nc2ccc(N3CCCCC3)cc2-c2cc(C(=O)NCc3cccc(C(F)(F)F)c3)cc(Cl)n2)c1 [Example 86] | 1 to 7.94 µM
11 | O=C(O)CCSCc1cccc(C(=O)Nc2ccc(N3CCCCC3)cc2-c2cc(C(=O)NCc3cccc(C(F)(F)F)c3)ncn2)c1 [Example 87] | 10 to 31.6 µM
12 | O=C(O)CCSCc1cccc(C(=O)Nc2ccc(N3CCCCC3)cc2-c2nccc(C(=O)NCc3cccc(C(F)(F)F)c3)c2F)c1 [Example 88] | 10 to 31.6 µM
13 | O=C(O)CCSCc1cccc(C(=O)Nc2ccc(N3CCCCC3)cc2-c2cc(C(=O)NCc3cccc(C(F)(F)F)c3)c(F)cn2)c1 [Example 89] | 1 to 7.94 µM
14 | O=C(O)CCSCc1cccc(C(=O)Nc2ccc(N3CCCCC3)cc2-c2cc(C(=O)NCc3cccc(C(F)(F)F)c3)c(Cl)cn2)c1 [Example 90] | 10 to 31.6 µM
15 | O=C(NCc1cccc(C(F)(F)F)c1)c1ccnc(-c2cc(N3CCCCC3)ccc2NC(=O)c2cccc(CSCCCS(=O)(=O)O)c2)c1 [Example 91] | 10 to 31.6 µM
16 | CC(C)(CCO)SCc1cccc(C(=O)Nc2ccc(N3CCCCC3)cc2-c2cc(C(=O)NCc3cccc(C(F)(F)F)c3)ccn2)c1 [Example 92] | 1 to 7.94 µM
17 | O=C(O)CCSCc1cccc(C(=O)Nc2ccc(N3CCCCC3)cc2-c2cc(C(F)(F)c3cccc(C(F)(F)F)c3)ccn2)c1 [Example 93] | 10 to 31.6 µM
18 | O=C(O)CCSCc1cccc(C(=O)Nc2ccc(N3CCCCC3)cc2-c2cc(Oc3cccc(C(F)(F)F)c3)ccn2)c1 [Example 94] | 10 to 31.6 µM
19 | C[C@@H]1CN(c2ccc(NC(=O)c3cccc(C(=O)N(C)CCN4CCOCC4)c3)c(-c3cc(C(=O)NCc4cccc(C(F)(F)F)c4)ccn3)c2)C[C@H](C)O1 [Example 95] | 10 to 31.6 µM
20 | CN(CCN1CCOCC1)C(=O)c1cccc(C(=O)Nc2ccc(N3CCN(c4ncccn4)CC3)cc2-c2cc(C(=O)NCc3cccc(C(F)(F)F)c3)ccn2)c1 [Example 96] | 10 to 31.6 µM

Row | Compound | IC50
21 | O=C(O)CCSCc1cccc(C(=O)Nc2ccc(N3CCCCC3)cc2-c2cc(OCc3cccc(C(F)(F)F)c3)ccn2)c1 [Example 98] | 10 to 31.6 µM
22 | CN(CCN1CCOCC1)C(=O)c1cccc(C(=O)Nc2ccc(N3CCCCC3)cc2-c2cc(OCc3cccc(C(F)(F)F)c3)ccn2)c1 [Example 99] | 10 to 31.6 µM
23 | CC(C)OCCOc1ccc(NC(=O)c2cccc(C(=O)N(C)CCN3CCOCC3)c2)c(-c2cc(C(=O)NCc3cccc(C(F)(F)F)c3)ccn2)c1 [Example 101] | 1 to 7.94 µM
24 | COC[C@@H]1CCCN1c1ccc(NC(=O)c2cccc(C(=O)N(C)CCN3CCOCC3)c2)c(-c2cc(C(=O)NCc3cccc(C(F)(F)F)c3)ccn2)c1 [Example 102] | 10 to 31.6 µM
25 | COC[C@H]1CCCN1c1ccc(NC(=O)c2cccc(C(=O)N(C)CCN3CCOCC3)c2)c(-c2cc(C(=O)NCc3cccc(C(F)(F)F)c3)ccn2)c1 [Example 103] | 10 to 31.6 µM
26 | CN(CCN1CCOCC1)C(=O)c1cccc(C(=O)Nc2ccc(N3CCCCC3)cc2-c2cc(NCc3cccc(C(F)(F)F)c3)ccn2)c1 [Example 104] | 10 to 31.6 µM
27 | C[C@H]1CCCCN1c1ccc(NC(=O)c2cccc(C(=O)N(C)CCN3CCOCC3)c2)c(-c2cc(C(=O)NCc3cccc(C(F)(F)F)c3)ccn2)c1 [Example 105] | 1 to 7.94 µM
28 | CN(CCN1CCOCC1)C(=O)c1cccc(C(=O)Nc2ccc(N3CCCCC3)cc2-c2cc(C(F)(F)CCc3cccc(C(F)(F)F)c3)ccn2)c1 [Example 106] | 10 to 31.6 µM
29 | CN(CCN1CCOCC1)C(=O)c1cccc(C(=O)Nc2ccc(N3CCC(C)(C)CC3)cc2-c2cc(C(=O)NCc3cccc(C(F)(F)F)c3)ccn2)c1 [Example 108] | 10 to 31.6 µM
30 | CN(CCN1CCOCC1)C(=O)c1cccc(C(=O)Nc2ccc(N3CCCCC3)cc2-c2cc(SCc3ccccc3)ccn2)c1 [Example 109] | 1 to 7.94 µM
31 | CN(CCc1ccccn1)C(=O)c1cccc(C(=O)Nc2ccc(N3CCCCC3)cc2-c2cc(C(=O)NCc3cccc(C(F)(F)F)c3)ccn2)c1 [Example 110] | 1 to 7.94 µM
32 | CN(CCN1CCOCC1)C(=O)c1cccc(C(=O)Nc2ccc(N3CC[C@H]4CCCC[C@@H]4C3)cc2-c2cc(C(=O)NCc3cccc(C(F)(F)F)c3)ccn2)c1 [Example 111] | 10 to 31.6 µM
33 | O=C(O)CCCC1CCN(C(=O)c2cccc(C(=O)Nc3ccc(N4CCCCC4)cc3-c3cc(C(=O)NCc4cccc(C(F)(F)F)c4)ccn3)c2)CC1 [Example 112] | 1 to 7.94 µM
34 | O=C(O)CCCC1CCN(C(=O)CCCC2CCN(C(=O)c3cccc(C(=O)Nc4ccc(N5CCCCC5)cc4-c4cc(C(=O)NCc5cccc(C(F)(F)F)c5)ccn4)c3)CC2)CC1 [Example 113] | 1 to 7.94 µM
35 | CN(CCN1CCOCC1)C(=O)c1cccc(C(=O)Nc2ccc(N3CCC[C@H]4CCCC[C@@H]43)cc2-c2cc(C(=O)NCc3cccc(C(F)(F)F)c3)ccn2)c1 [Example 114] | 1 to 7.94 µM
36 | CCCN(CCC)c1ccc(NC(=O)c2cccc(C(=O)N(C)CCN3CCOCC3)c2)c(-c2cc(C(=O)NCc3cccc(C(F)(F)F)c3)ccn2)c1 [Example 116] | 1 to 7.94 µM
37 | CN(CCN1CCOCC1)C(=O)c1cccc(C(=O)Nc2ccc(N3CCSCC3)cc2-c2cc(C(=O)NCc3cccc(C(F)(F)F)c3)ccn2)c1 [Example 118] | 1 to 7.94 µM
38 | O=C(O)Cc1cccc(SCc2cccc(C(=O)Nc3ccc(Cl)cc3-c3cc(C(=O)NCc4cccc(C(F)(F)F)c4)ccn3)c2)c1 [Example 119] | < 1 µM
39 | CN(C)c1ccc(NC(=O)c2cccc(CSCCC(=O)O)c2)c(-c2cc(C(=O)NCc3cccc(C(F)(F)F)c3)ccn2)c1 [Example 120] | 1 to 7.94 µM
40 | COc1cc(C(F)(F)F)ccc1CNC(=O)c1ccnc(-c2cc(N3CCCCC3)ccc2NC(=O)c2cccc(C(=O)N(C)CCN3CCOCC3)c2)c1 [Example 121, N1-(2-(4-((2-methoxy-4-(trifluoromethyl)benzyl)carbamoyl)pyridin-2-yl)-4-(piperidin-1-yl)phenyl)-N3-methyl-N3-(2-morpholinoethyl)isophthalamide] | 1 to 7.94 µM
